# Where a chain is given by its changes, count along the chain named.
# T1: human SLC7A4 triple mutant (Tri-M) (Homo sapiens, UniProt O43246, L336S/L394M/V332S)
# T1 construct: C-terminal FLAG tag
# T1 sequence (O43246 1-635 V332S/L336S/L394M): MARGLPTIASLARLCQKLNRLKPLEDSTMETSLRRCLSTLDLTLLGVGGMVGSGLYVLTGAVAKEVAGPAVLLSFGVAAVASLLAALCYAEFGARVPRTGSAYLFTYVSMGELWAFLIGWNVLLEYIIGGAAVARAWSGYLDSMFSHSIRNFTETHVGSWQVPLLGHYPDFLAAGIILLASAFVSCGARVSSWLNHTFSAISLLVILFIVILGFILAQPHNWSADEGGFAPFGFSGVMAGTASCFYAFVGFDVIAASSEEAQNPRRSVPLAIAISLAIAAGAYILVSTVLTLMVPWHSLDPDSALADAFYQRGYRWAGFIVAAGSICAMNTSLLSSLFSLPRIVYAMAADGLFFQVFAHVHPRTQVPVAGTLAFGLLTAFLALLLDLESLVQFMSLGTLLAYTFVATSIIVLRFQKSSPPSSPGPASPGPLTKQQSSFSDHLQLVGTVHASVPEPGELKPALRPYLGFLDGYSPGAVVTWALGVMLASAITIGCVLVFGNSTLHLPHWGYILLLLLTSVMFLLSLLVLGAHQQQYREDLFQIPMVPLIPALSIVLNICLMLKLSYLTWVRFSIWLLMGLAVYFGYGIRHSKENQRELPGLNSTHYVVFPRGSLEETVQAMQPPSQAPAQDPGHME
# T2: human SLC7A4 (Homo sapiens, UniProt O43246)
# T2 construct: C-terminal FLAG tag
# T2 sequence (O43246 1-635): T1 sequence (O43246 1-635 V332S/L336S/L394M) with S332V, S336L, M394L
# B1: Sybody B5 (VHH)
# VHH: QVQLVESGGGLVQAGGSLRLSCAASGFPVNMYWMHWYRQAPGKEREWVAAIQSYGQWTAYADSVKGRFTISRDNAKNTVYLQMNSLKPEDTAVYYCAVGVGGYYLGQGTQVTVS
# notes: Synthetic nanobody selected from the loop sybody library against AtCAT4; also called SybB5; source: E. coli MC1061, periplasmic extraction, purified (Ni-NTA); not shown: Myc, C-terminal, kept; His6, C-terminal, kept
# What was measured:
# [1] = biological target: T1, human SLC7A4 triple mutant (Tri-M); experiment: competition of […] L-Leu uptake in HCT116 SLC7A5 KO cells; type: cell-based
# human SLC7A4 [2] = biological target: T2, human SLC7A4; experiment: competition of […] L-Leu uptake in HCT116 SLC7A5 KO cells; also recognised in nanoDSF; not transported; type: cell-based
# [3] = biological target: T1, human SLC7A4 triple mutant (Tri-M); experiment: […] L-Leu uptake and competition in HCT116 SLC7A5 KO cells; type: cell-based
# human SLC7A4 [4] = biological target: T2, human SLC7A4; experiment: […] L-Leu uptake competition in HCT116 SLC7A5 KO cells overexpressing SLC7A4; also nanoDSF (~[…] °C) and proteoliposome uptake; type: cell-based
# [5] = biological target: T3, Arabidopsis thaliana CAT4 (SLC7A4/CAT4) (Arabidopsis thaliana (Mouse-ear cress)., UniProt Q8W4K3); experiment: BLI; Octet Red 384; who was immobilised is not stated; settings: both partners purified
# T3 construct: Cationic amino acid transporter 4 (CAT4) of Arabidopsis thaliana, UniProt Q8W4K3; codon-optimised synthetic gene in pDDGFP-Leu2D; C-terminal TEV site (ENLYFQG/S), yeGFP and His12 removed by TEV protease, so part of the TEV site stays on the C-terminus; also called AtCAT4; Arabidopsis thaliana SLC7A4; source: S. cerevisiae BJ5460, purified in LMNG (Ni-NTA, TEV cleavage, HisTrap flow-through, SEC); …
# T3 sequence (Q8W4K3 whole entry): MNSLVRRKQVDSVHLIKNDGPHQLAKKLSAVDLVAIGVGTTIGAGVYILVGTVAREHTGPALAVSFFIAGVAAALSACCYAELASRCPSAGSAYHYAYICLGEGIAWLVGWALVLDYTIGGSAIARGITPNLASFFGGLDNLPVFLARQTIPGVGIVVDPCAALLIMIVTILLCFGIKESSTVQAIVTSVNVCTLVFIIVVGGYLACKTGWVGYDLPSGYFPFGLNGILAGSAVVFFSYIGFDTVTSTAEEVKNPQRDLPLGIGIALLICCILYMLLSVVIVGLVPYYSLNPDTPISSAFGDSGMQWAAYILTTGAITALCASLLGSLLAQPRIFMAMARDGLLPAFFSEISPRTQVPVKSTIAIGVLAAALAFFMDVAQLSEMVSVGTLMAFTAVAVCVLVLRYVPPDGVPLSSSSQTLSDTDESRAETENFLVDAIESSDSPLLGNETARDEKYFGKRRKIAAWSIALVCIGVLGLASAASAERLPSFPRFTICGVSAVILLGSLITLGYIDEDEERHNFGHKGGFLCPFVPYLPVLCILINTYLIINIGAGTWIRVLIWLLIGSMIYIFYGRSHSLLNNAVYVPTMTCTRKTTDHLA
molecule,measurement,setting,value
N=C(N)NCCC[C@H](N)C(=O)O [L-Arginine],IC50,[1],48.6 ± 2.3 µM
same,IC50,human SLC7A4 [2],680 ± 19 µM
CC(C)C[C@H](N)C(=O)O [L-Leucine],IC50,[3],65 µM
same,IC50,human SLC7A4 [4],24 ± 5 µM
B1,Kd,[5],0.0573 ± 0.0105 µM

# — PMC13194723, “Structural basis for pH-responsive amino acid transport via SLC7A4” (Nature Communications, 2026)
